Where a name gives a salt, the structure may show the parent alone.
Legend:
Assay type in all cases: cell-based
[1] = tested on: E. cloacae clinical isolate (strain 5); assay: MIC by broth microdilution (alone and in combination with meropenam), strain 5; details: Enterobacter cloacae, compound alone, read-out: MIC, antibacterial activity of example alone
Method: (§1) Compounds of the present invention alone, meropenam (MER) alone, and as a combination with test antibiotic (meropenam) were tested for antimicrobial activity by determing minimum inhibitory concentration (MIC, mg/L) using the broth microdilution method according to the guidelines of the Clinical Laboratories and Stansards Insitute (“Methods for Dilution Antimicrobial Suscetibility Tests for Bacterial that Grow Aerobiclly”, Approved standard, […]., Clinical and Laboratories Stanards Institute (CLSI) Document M7-A8, Wayne, Pa., USA, 2009). Meropenam as a test antibiotic compound was dissolved in DMSO. Meropenam was then diluted in microbial growth medium (Mueller-Hinton Broth II, cation adjusted) resulting in a final concention range of 0.125-64 mg/L in serial two-fold dilution. In all cases the filnal DMSO concentraion was less than 0.5%. Bacteria were added to 96-well microtitre plates containing the serial two-fold dilutions of the compoumds; the final cell density was appoximately 5x10^5 colony forming units/mL (CFU/mL). Plates were incubated at 37° C. for 18-24 hours and read visually. The MIC, i.e. the lowest concentration of the test compound that inhibited visible growth of the bacteria, was recorded. The same assay conditions were used when the compounds of present invention alone, and as a combination with test meropenam antibiotic compound was tested for minmum inhibitory concentration (MIC, mg/L). Whileest meropenam was serially diluted as descrribed above, a constant concentration of the present invention of 4 µg/mL was used.
(§2) Bacterial strains that were used to evaluate the antimicrobial activity using the MIC determination included but were not limited to E. coli clinical isolate (strain 1), E. coli 8739 (strain 2), K. pneumoniae clinical isolate (strain 3), K. pneumoniae 700603 (strain 4), E. cloacae clinical isolate (strain 5), E. cloacae 700323 (strain 6), A. baumannii clinical isolate (strain 7), A. baumannii 19606 (strain 8), P. aeruginosa clinical isolate (strain 9), P. aeruginosa 9027 (strain 10).

[2] = tested on: P. aeruginosa 9027 (strain 10); assay: MIC by broth microdilution (alone and in combination with meropenam), strain 10; details: Pseudomonas aeruginosa, compound alone, read-out: MIC, antibacterial activity of example alone
Method: as §1, §2

[3] = tested on: E. cloacae 700323 (strain 6); assay: MIC by broth microdilution (alone and in combination with meropenam), strain 6; details: Enterobacter cloacae, compound alone, read-out: MIC, antibacterial activity of example alone
Method: as §1, §2

[4] = tested on: A. baumannii clinical isolate (strain 7); assay: MIC by broth microdilution (alone and in combination with meropenam), strain 7; details: Acinetobacter baumannii, compound alone, read-out: MIC, antibacterial activity of example alone
Method: as §1, §2

[5] = tested on: E. coli 8739 (strain 2); assay: MIC by broth microdilution (alone and in combination with meropenam), strain 2; details: Escherichia coli, compound alone, read-out: MIC, antibacterial activity of example alone
Method: as §1, §2

[6] = tested on: E. coli clinical isolate (strain 1); assay: MIC by broth microdilution (alone and in combination with meropenam), strain 1; details: Escherichia coli, compound alone, read-out: MIC, antibacterial activity of example alone
Method: as §1, §2

[7] = tested on: P. aeruginosa clinical isolate (strain 9); assay: MIC by broth microdilution (alone and in combination with meropenam), strain 9; details: Pseudomonas aeruginosa, compound alone, read-out: MIC, antibacterial activity of example alone
Method: as §1, §2

[8] = tested on: A. baumannii 19606 (strain 8); assay: MIC by broth microdilution (alone and in combination with meropenam), strain 8; details: Acinetobacter baumannii, compound alone, read-out: MIC, antibacterial activity of example alone
Method: as §1, §2

[9] = tested on: K. pneumoniae 700603 (strain 4); assay: MIC by broth microdilution (alone and in combination with meropenam), strain 4; details: Klebsiella pneumoniae, compound alone, read-out: MIC, antibacterial activity of example alone
Method: as §1, §2

[10] = tested on: K. pneumoniae clinical isolate (strain 3); assay: MIC by broth microdilution (alone and in combination with meropenam), strain 3; details: Klebsiella pneumoniae, compound alone, read-out: MIC, antibacterial activity of example alone
Method: as §1, §2

Row | SMILES | MIC [1] | MIC [2] | MIC [3] | MIC [4] | MIC [5] | MIC [6] | MIC [7] | MIC [8] | MIC [9] | MIC [10]
1 | N=C(NC(=O)c1ccco1)[C@@H]1CC[C@@H]2CN1C(=O)N2OS(=O)(=O)O [Ex.1, (2S,5R)-2-(N-(furan-2-carbonyl)carbamimidoyl)-7-oxo-1,6-diazabicyclo[3.2.1]octan-6-yl Hydrogen Sulfate] | > 64 µg/mL | > 64 µg/mL | > 64 µg/mL | > 64 µg/mL | > 64 µg/mL | > 64 µg/mL | > 64 µg/mL | > 64 µg/mL | > 64 µg/mL | > 64 µg/mL
2 | N=C(NC(=O)c1ccccc1)[C@@H]1CC[C@@H]2CN1C(=O)N2OS(=O)(=O)O [Ex.2, (2S,5R)-2-(N-benzoylcarbamimidoyl)-7-oxo-1,6-diazabicyclo[3.2.1]octan-6-yl Hydrogen Sulfate] | > 64 µg/mL | > 64 µg/mL | > 64 µg/mL | > 64 µg/mL | > 64 µg/mL | > 64 µg/mL | > 64 µg/mL | > 64 µg/mL | > 64 µg/mL | > 64 µg/mL
3 | CCC(=O)NC(=N)[C@@H]1CC[C@@H]2CN1C(=O)N2OS(=O)(=O)[O-].[Na+] [Ex.3, Sodium (2S,5R)-7-oxo-2-(N-propionylcarbamimidoyl)-1,6-diazabicyclo[3.2.1]octan-6-yl Sulfate] | > 64 µg/mL | > 64 µg/mL | > 64 µg/mL | > 64 µg/mL | > 64 µg/mL | > 64 µg/mL | > 64 µg/mL | > 64 µg/mL | > 64 µg/mL | > 64 µg/mL
4 | CC(=O)N1CCC(C(=O)NC(=N)[C@@H]2CC[C@@H]3CN2C(=O)N3OS(=O)(=O)[O-])CC1.[Na+] [Ex.4, Sodium (2S,5R)-2-(N-(1-acetylpiperidine-4-carbonyl)carbamimidoyl)-7-oxo-1,6-diazabicyclo[3.2.1]octan-6-yl Sulfate] | > 64 µg/mL | > 64 µg/mL | > 64 µg/mL | > 64 µg/mL | > 64 µg/mL | > 64 µg/mL | > 64 µg/mL | > 64 µg/mL | > 64 µg/mL | > 64 µg/mL
5 | N=C(NC(=O)c1cccnc1)[C@@H]1CC[C@@H]2CN1C(=O)N2OS(=O)(=O)O [Ex.5, (2S,5R)-2-(N-nicotinoylcarbamimidoyl)-7-oxo-1,6-diazabicyclo[3.2.1]octan-6-yl Hydrogen Sulfate] | > 64 µg/mL | > 64 µg/mL | > 64 µg/mL | > 64 µg/mL | > 64 µg/mL | > 64 µg/mL | > 64 µg/mL | > 64 µg/mL | > 64 µg/mL | > 64 µg/mL

More lines, now with the values ahead:

Row | MIC [1] | MIC [2] | MIC [3] | MIC [4] | MIC [5] | MIC [6] | MIC [7] | MIC [8] | MIC [9] | MIC [10] | SMILES
6 | > 64 µg/mL | > 64 µg/mL | > 64 µg/mL | > 64 µg/mL | > 64 µg/mL | > 64 µg/mL | > 64 µg/mL | > 64 µg/mL | > 64 µg/mL | > 64 µg/mL | N=C(NC(=O)c1ccc(C(F)(F)F)nc1)[C@@H]1CC[C@@H]2CN1C(=O)N2OS(=O)(=O)[O-].[Na+] [Ex.6, Sodium (2S,5R)-7-oxo-2-(N-(6-(trifluoromethyl)nicotinoyl)carbamimidoyl)-1,6-diazabicyclo[3.2.1]octan-6-yl Sulfate]
7 | > 64 µg/mL | > 64 µg/mL | > 64 µg/mL | > 64 µg/mL | > 64 µg/mL | > 64 µg/mL | > 64 µg/mL | > 64 µg/mL | > 64 µg/mL | > 64 µg/mL | N=C(NC(=O)c1ccncc1)[C@@H]1CC[C@@H]2CN1C(=O)N2OS(=O)(=O)O [Ex.7, (2S,5R)-2-(N-isonicotinoylcarbamimidoyl)-7-oxo-1,6-diazabicyclo[3.2.1]octan-6-yl Hydrogen Sulfate]
8 | > 64 µg/mL | > 64 µg/mL | > 64 µg/mL | > 64 µg/mL | > 64 µg/mL | > 64 µg/mL | > 64 µg/mL | > 64 µg/mL | > 64 µg/mL | > 64 µg/mL | CC(=O)NC(=N)[C@@H]1CC[C@@H]2CN1C(=O)N2OS(=O)(=O)O [Ex.9, (2S,5R)-2-(N-acetylcarbamimidoyl)-7-oxo-1,6-diazabicyclo[3.2.1]octan-6-yl Hydrogen Sulfate]

From US20230365561A1, “BETA-LACTAMASE INHIBITORS AND THEIR PREPARATION” (NINGXIA ACADEMY OF AGRICUL TURE AND FORESTRY SCIENCES, priority 2020, published 2023)
